Data taken from patent publication US20260327211A1, “MODULATORS OF A POTASSIUM CHANNEL AND OF TRPV1 CHANNEL AND USES THEREOF” (Bsense Bio Therapeutics Ltd., priority 2023, published 2026).

Legend:
78 recombinant targets = test: In-vitro selectivity panel, 78 targets; conditions: all 9 modulated targets of 78
Method: (§1) A broad panel of 78 recombinant targets was tested for pharmacologic activity in vitro through a variety of functional assays (Eurofins DiscoverX, USA), as part of the National Institute of Neurological Disorders and Stroke (NINDS) Preclinical Screening Platform for Pain (PSPP) program. The biological targets for the in vitro profiling have been selected based on avoiding opioid receptor stimulation and targets known to be associated with adverse events or targeted by drugs of abuse. […] For each test, a reference compound was evaluated at the target of interest as a positive control.
In addition, based on efficacious exposures in vivo, the separation from other targets is still greater than 1000-fold, further supporting the specificity of the compound's MOA.

[1] = Plasma protein binding, human; format: in vitro ADME; conditions: read-out: PPB fu (human)
Method: Incubation: Test compounds or the positive control warfarin were introduced into 10% plasma samples (Sourced from WuXi DMPK labs or from commercial vendors) to a concentration of 2 μM. A portion of 150 μL of the compound-containing plasma sample was added to one chamber of a 96-well equilibrium HTD dialysis plate. An equal volume of dialysis buffer was added to the corresponding chamber. A plasma sample was also taken before the incubation and designated as the T0 sample, serving for recovery calculation. The plate was incubated in a humidified 5% CO2 incubator at 37° C. for 4 hours. Each incubation was set up in triplicate.
Sample extraction and preparation: Following the incubation period, samples of 50 μL were drawn from both the plasma side and the buffer side and each was mixed with an equal volume of blank plasma. All matrix-matched samples were quenched using a stop solution containing an internal standard (IS).
Sample Analysis: The samples were subsequently analyzed by LC-MS/MS. The concentrations of the test compound in plasma and buffer samples were quantified based on the peak area ratio of analyte to the internal standard, with no requirement for a standard curve.

OCT2 = OCT2 (Homo sapiens, UniProt O15244); test: Transporter substrate, OCT2; format: in vitro ADME; conditions: role: substrate
Sequence of OCT2 (O15244 whole entry): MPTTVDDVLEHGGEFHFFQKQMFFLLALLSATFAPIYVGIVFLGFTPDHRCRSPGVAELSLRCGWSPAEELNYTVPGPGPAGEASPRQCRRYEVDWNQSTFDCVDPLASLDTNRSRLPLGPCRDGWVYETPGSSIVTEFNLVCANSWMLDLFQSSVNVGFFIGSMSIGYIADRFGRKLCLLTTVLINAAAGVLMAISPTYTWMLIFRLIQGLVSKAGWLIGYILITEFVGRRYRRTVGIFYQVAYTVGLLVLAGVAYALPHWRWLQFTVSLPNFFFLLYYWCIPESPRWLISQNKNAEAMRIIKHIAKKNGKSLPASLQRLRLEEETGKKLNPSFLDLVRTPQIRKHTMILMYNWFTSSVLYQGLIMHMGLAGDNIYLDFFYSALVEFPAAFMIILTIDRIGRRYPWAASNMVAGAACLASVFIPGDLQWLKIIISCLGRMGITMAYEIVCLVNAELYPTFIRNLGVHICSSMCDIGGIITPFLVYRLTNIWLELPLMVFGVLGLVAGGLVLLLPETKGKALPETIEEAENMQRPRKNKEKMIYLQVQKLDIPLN
Method: (§2) Additionally, compound 760 was tested for its capability to act as a transporter substrate for various transporters, and was not found to be a transporter substrate for any of the tested transporters.

OATP2B1 = OATP2B1 (Homo sapiens, UniProt O94956); test: Transporter substrate, OATP2B1; format: in vitro ADME; conditions: role: substrate
Sequence of OATP2B1 (O94956 whole entry): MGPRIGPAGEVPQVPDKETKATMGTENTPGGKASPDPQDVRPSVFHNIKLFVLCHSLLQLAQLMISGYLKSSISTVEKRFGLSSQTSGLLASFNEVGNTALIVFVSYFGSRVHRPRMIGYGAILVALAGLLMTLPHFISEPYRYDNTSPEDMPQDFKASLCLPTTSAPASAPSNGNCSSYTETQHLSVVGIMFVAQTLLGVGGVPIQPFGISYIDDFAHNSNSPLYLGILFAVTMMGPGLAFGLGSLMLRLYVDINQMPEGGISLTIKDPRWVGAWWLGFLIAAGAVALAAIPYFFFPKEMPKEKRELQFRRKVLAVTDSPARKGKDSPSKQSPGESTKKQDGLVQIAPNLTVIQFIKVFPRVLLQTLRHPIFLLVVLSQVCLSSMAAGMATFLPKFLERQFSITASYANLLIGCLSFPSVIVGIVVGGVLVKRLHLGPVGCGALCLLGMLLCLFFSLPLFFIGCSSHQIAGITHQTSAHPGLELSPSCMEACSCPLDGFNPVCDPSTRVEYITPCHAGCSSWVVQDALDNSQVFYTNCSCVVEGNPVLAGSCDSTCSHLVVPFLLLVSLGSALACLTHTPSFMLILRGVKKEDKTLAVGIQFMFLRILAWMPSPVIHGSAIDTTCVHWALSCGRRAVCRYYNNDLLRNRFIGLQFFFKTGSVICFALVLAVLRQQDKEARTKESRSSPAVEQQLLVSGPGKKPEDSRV
Method: as §2

MATE1 = test: Transporter substrate, MATE1; format: in vitro ADME; conditions: role: substrate
Method: as §2

MATE2-K = test: Transporter substrate, MATE2-K; format: in vitro ADME; conditions: role: substrate
Method: as §2

Dopamine D1-D5 = test: Functional screening panel, Dopamine D1-D5; format: biochemical; conditions: up to 10 micromolar
Method: as §1

hERG = hERG (Homo sapiens, UniProt Q12809); test: Functional selectivity panel, hERG; format: biochemical; design: Eurofins DiscoverX functional panel cells; conditions: up to 10 micromolar
Sequence of hERG (Q12809 whole entry): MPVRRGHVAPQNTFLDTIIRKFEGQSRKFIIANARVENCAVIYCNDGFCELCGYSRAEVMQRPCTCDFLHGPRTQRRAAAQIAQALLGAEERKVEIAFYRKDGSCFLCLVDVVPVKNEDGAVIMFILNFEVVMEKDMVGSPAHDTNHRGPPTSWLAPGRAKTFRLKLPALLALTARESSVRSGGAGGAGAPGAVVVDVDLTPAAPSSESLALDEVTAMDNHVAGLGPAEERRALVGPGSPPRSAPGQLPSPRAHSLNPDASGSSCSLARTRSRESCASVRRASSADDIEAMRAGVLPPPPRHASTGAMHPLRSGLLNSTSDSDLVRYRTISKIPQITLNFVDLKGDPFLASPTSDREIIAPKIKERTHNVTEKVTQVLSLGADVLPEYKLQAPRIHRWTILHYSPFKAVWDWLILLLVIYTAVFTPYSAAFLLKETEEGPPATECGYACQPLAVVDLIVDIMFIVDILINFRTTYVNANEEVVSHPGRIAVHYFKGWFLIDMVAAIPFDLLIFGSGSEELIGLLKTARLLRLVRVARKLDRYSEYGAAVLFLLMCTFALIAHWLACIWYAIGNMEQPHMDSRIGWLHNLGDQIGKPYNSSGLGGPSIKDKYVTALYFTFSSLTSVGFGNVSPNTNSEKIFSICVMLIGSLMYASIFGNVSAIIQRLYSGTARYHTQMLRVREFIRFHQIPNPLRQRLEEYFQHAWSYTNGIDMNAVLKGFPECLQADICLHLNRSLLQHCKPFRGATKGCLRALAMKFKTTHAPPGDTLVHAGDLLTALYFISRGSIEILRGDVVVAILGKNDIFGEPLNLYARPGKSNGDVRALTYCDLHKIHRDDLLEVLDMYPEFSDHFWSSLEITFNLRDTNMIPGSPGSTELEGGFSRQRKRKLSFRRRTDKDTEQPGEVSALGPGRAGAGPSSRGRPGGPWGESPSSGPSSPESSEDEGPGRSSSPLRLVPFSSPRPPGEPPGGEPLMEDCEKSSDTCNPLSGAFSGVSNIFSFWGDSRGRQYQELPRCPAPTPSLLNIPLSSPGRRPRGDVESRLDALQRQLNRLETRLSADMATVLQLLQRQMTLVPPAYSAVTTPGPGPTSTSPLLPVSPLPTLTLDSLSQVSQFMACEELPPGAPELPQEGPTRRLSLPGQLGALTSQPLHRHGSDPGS
Method: as §1

Row | Compound | IC50 (78 recombinant targets) | fraction unbound at 4 h, 2 µM [1] | OCT2 substrate (OCT2) | OATP2B1 substrate (OATP2B1) | MATE1 substrate (MATE1) | MATE2-K substrate (MATE2-K) | Effect on Dopamine D1-D5 (Dopamine D1-D5) | Effect on hERG (hERG)
1 | O=C(Cc1cncc(-n2cc(Cl)c3cc(Cl)cc(Cl)c32)c1)N[C@@H]1COC[C@H]1O [Compound 661] | > 1400 nM | 0.003 |  |  |  |  |  | 
2 | O=C(Cc1nccc(-n2cc(Cl)c3cc(Cl)cc(Cl)c32)n1)NC1COCC1O (centres unmarked) [Compound 760] |  |  | not a transporter substrate | not a transporter substrate | not a transporter substrate | not a transporter substrate | no effect | no effect
